In patent US10407445B2, “Hepatitis C virus inhibitors” (ENANTA PHARMACEUTICALS, INC., priority 2013, dated 2019):

Columns and labels:
Format in all cases: cell-based
Settings in all cases: Hepatitis C virus
GT2a-JFH replicon = assay: Stable replicon assay, comparison to daclatasvir, GT2a-JFH
Excerpt: The plasmid pSG-hRlucNeo-JFH1 was generated from pSG-Neo-JFH1 (Kato et al. 2003, Gastroentrology 125:1808-1817). A fragment containing the JFH-1 5′ NTR-hRluc-Neo gene and two unique restriction sites (AgeI and PmeI) was synthesized (Integrated DNA Technologies, Coralville, Iowa). The resulting plasmid was digested with AgeI and PmeI and the excised fragment (5′NTR-hRluc-Neo) was ligated into pSG-Neo-JFH1 digested with the same enzymes to generate pSG-hRlucNeo-JFH1. To allow expression of heterologous NS5A sequences, an NS5A shuttle vector was generated from pSG-Neo-JFH1, in which the entire coding sequence of NS5A plus the first eight codons of NS5B were replaced with an AfeI restriction site. This was done by Infusion cloning (Clontech, Mountain View, Calif.) from two PCR products that were generated using pSG-Neo-JFH1 as a template and the following primer pairs: […]
Stable HCV replicon cell lines were grown in complete media (Dulbecco's modified Eagle medium [DMEM], 2 mM L-glutamine, 0.1 mM essential amino acids, 1 mM sodium pyruvate, 10% fetal bovine serum) with the addition 500 μg/ml […] (G418). […] For stable and transient replicon assays, luciferase activity of compound-treated cells was measured relative to DMSO-treated cells after 72 h incubation using RENILLA-GLO™ Luciferase Assay (Promega). […]

GT2a-6a-HK6a replicon = assay: Stable replicon assay, comparison to daclatasvir, GT2a-6a-HK6a
Excerpt: The plasmid pSG-hRlucNeo-JFH1 was generated from pSG-Neo-JFH1 (Kato et al. 2003, Gastroentrology 125:1808-1817). A fragment containing the JFH-1 5′ NTR-hRluc-Neo gene and two unique restriction sites (AgeI and PmeI) was synthesized (Integrated DNA Technologies, Coralville, Iowa). The resulting plasmid was digested with AgeI and PmeI and the excised fragment (5′NTR-hRluc-Neo) was ligated into pSG-Neo-JFH1 digested with the same enzymes to generate pSG-hRlucNeo-JFH1. To allow expression of heterologous NS5A sequences, an NS5A shuttle vector was generated from pSG-Neo-JFH1, in which the entire coding sequence of NS5A plus the first eight codons of NS5B were replaced with an AfeI restriction site. This was done by Infusion cloning (Clontech, Mountain View, Calif.) from two PCR products that were generated using pSG-Neo-JFH1 as a template and the following primer pairs:
To express GT6a NS5A chimeric sequences a JFH1-based N-terminal NS5A (NS5A residues 2-107) shuttle vector was constructed by Infusion cloning from two PCR products that were generated using pSG-Neo-JFH1 as a template and the following primers: […]
Purified PCR products were inserted into an NsiI/SnaBI digested pSG-Neo-JFH1 vector by Infusion cloning following the manufacturer's instructions to generate pSG-Neo-JFH1-Nterm_5Ashuttle. […]

[1] = system: HCV genotype 1a replicon, NS5A M28T; assay: Transient replication assay, GT1a NS5A M28T
[2] = system: HCV genotype 1a replicon, NS5A M28V; assay: Transient replication assay, GT1a NS5A M28V
[3] = system: HCV genotype 1a replicon, NS5A P32L; assay: Transient replication assay, GT1a NS5A P32L
[4] = system: HCV genotype 1a replicon, NS5A Q30E; assay: Transient replication assay, GT1a NS5A Q30E
[5] = system: HCV genotype 1a replicon, NS5A Q30R; assay: Transient replication assay, GT1a NS5A Q30R
[6] = system: HCV genotype 1a replicon, NS5A Y93C; assay: Transient replication assay, GT1a NS5A Y93C
[7] = system: HCV genotype 1a replicon, NS5A Y93H; assay: Transient replication assay, GT1a NS5A Y93H
[8] = system: HCV genotype 1a replicon, NS5A M28V Y93H; assay: Transient replication assay, GT1a NS5A M28V Y93H
[9] = system: HCV genotype 1a replicon, NS5A M28V Y93C; assay: Transient replication assay, GT1a NS5A M28V Y93C

Row | SMILES | EC50 (GT2a-JFH replicon) | EC50 (GT2a-6a-HK6a replicon) | EC50 [1] | EC50 [2] | EC50 [3] | EC50 [4] | EC50 [5] | EC50 [6] | EC50 [7] | EC50 [8] | EC50 [9]
1 | COC(=O)N[C@H](C(=O)N1C[C@]2(CCCOC2)C[C@H]1c1ncc(-c2ccc(-c3ccc4c(ccc5nc([C@@H]6C[C@@H]7CCC[C@@H]7N6C(=O)[C@@H](NC(=O)OC)C(C)C)[nH]c54)c3)cc2)[nH]1)C(C)C [Compound 16] | 0.004 nM | 0.002 nM | 0.049 nM | 0.0015 nM | 0.046 nM | 0.74 nM | 0.012 nM | 0.22 nM | 10 nM | 15 nM | 1 nM
2 | COC(=O)N[C@H](C(=O)N1CCC[C@H]1c1nc(-c2ccc(-c3ccc(-c4c[nH]c([C@@H]5CCCN5C(=O)[C@@H](NC(=O)OC)C(C)C)n4)cc3)cc2)c[nH]1)C(C)C [Daclatasvir, reference compound] | 0.008 nM | 0.005 nM | 3.4 nM | 0.0073 nM | 1.9 nM | 81.5 nM | 3.4 nM | 3.2 nM | 65 nM | 17.5 nM | 3.5 nM
